Key:
Test in all cases: relative viability (nuclei count vs DMSO), 5 days (fraction); higher = more cells survive
[1] = compound: Cn1nnc2c(C(N)=O)ncn2c1=O [Temozolomide] + CS(=O)(=O)N1CCN(Cc2cc3nc(-c4cccc5[nH]ncc45)nc(N4CCOCC4)c3s2)CC1 [Pictilisib] (partner 1 µM)
Summary of the method: (§1)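 Five library-drug doses in √10 steps were combined with a fixed anchor-drug dose, or a single drug was given alone, by pin tool to lung cancer cell lines in 1536-well plates the day after seeding. Nuclei were stained and counted after 5 days. Relative viability is the nuclei count in treated wells over that in vehicle wells, taken as the median of duplicate plates.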

AZD5582 + Phenformin = compound: C[C@@H](C(=O)N[C@@H](C1CCCCC1)C(=O)N2CCC[C@H]2C(=O)N[C@@H]3[C@@H](CC4=CC=CC=C34)OCC#CC#CCO[C@@H]5CC6=CC=CC=C6[C@@H]5NC(=O)[C@@H]7CCCN7C(=O)[C@H](C8CCCCC8)NC(=O)[C@H](C)NC)NC [AZD5582] + N=C(N)NC(=N)NCCc1ccccc1 [Phenformin] (partner 250 µM)
Summary of the method: as §1

[2] = compound: Cn1nnc2c(C(N)=O)ncn2c1=O [Temozolomide] + CC(=O)Nc1cccc(-n2c(=O)n(C3CC3)c(=O)c3c(Nc4ccc(I)cc4F)n(C)c(=O)c(C)c32)c1 [Trametinib] (partner 0.02 µM)
Summary of the method: as §1

[3] = compound: Cn1nnc2c(C(N)=O)ncn2c1=O [Temozolomide] + O=C(CCCCCCC(=O)Nc1ccccc1)NO [Vorinostat] (partner 1 µM)
Summary of the method: as §1

Cell Line | relative viability ([1]; first compound 0.2 µM) | relative viability ([1]; first compound 0.6325 µM) | relative viability ([1]; first compound 2 µM) | relative viability ([1]; first compound 6.325 µM) | relative viability ([1]; first compound 20 µM) | relative viability (AZD5582 + Phenformin; first compound 0.001581 µM) | relative viability (AZD5582 + Phenformin; first compound 0.005 µM) | relative viability (AZD5582 + Phenformin; first compound 0.05 µM) | relative viability ([2]; first compound 0.2 µM) | relative viability ([2]; first compound 0.6325 µM) | relative viability ([2]; first compound 2 µM) | relative viability ([2]; first compound 6.325 µM) | relative viability ([2]; first compound 20 µM) | relative viability ([3]; first compound 0.2 µM) | relative viability ([3]; first compound 0.6325 µM) | relative viability ([3]; first compound 2 µM) | relative viability ([3]; first compound 6.325 µM) | relative viability ([3]; first compound 20 µM) | relative viability (AZD5582 + Phenformin; first compound 0.01581 µM)
NCI-H441 | 0.437 | 0.443 | 0.543 | 0.375 | 0.51 | 0.621 | 0.799 | 0.674 | 0.543 | 0.642 | 0.478 | 0.425 | 0.459 | 0.986 | 0.885 | 0.773 | 0.703 | 0.691 | –
NCI-H23 | 0.563 | 0.508 | 0.517 | 0.401 | 0.454 | 0.66 | 0.611 | 0.425 | 0.353 | 0.348 | 0.427 | 0.381 | 0.358 | 0.79 | 0.727 | 0.716 | 0.595 | 0.541 | 0.518
HARA | 0.376 | 0.484 | 0.603 | 0.438 | 0.256 | 0.415 | 0.501 | 0.403 | 0.717 | 0.601 | 0.886 | 0.89 | 0.441 | 0.575 | 0.514 | 0.511 | 0.573 | 0.521 | 0.493
LOU-NH91 | 0.512 | 0.547 | 0.551 | 0.523 | 0.497 | 0.716 | 0.698 | 0.741 | 0.731 | 0.806 | 0.793 | 0.806 | 0.7 | 0.799 | 0.934 | 1.03 | 0.923 | 0.797 | 0.592
NCI-H596 | 0.421 | 0.404 | 0.411 | 0.385 | 0.384 | – | – | 0.217 | 0.916 | 0.714 | 0.943 | 0.789 | 0.877 | 0.683 | 0.652 | 0.58 | 0.585 | 0.689 | 0.764
NCI-H2405 | 0.392 | 0.434 | 0.487 | 0.338 | 0.465 | 0.375 | 0.469 | 0.473 | 0.585 | 0.699 | 0.798 | 0.569 | 0.597 | 1.25 | 1.08 | 1.05 | 0.99 | 0.995 | 0.327
PC-3 [JPC-3] | 0.71 | 0.775 | 0.798 | 0.774 | 0.296 | 0.465 | 0.441 | 0.381 | 0.547 | 0.769 | 0.821 | 0.724 | 0.433 | 1.21 | 0.737 | 0.937 | 0.732 | 0.319 | 0.47
NCI-H1666 | 0.433 | 0.404 | 0.394 | 0.345 | 0.298 | 0.532 | 0.544 | 0.609 | 0.828 | 0.871 | 0.739 | 0.809 | 0.732 | 1.07 | 1 | 0.94 | 0.794 | 0.868 | 0.557
COR-L 105 | 0.408 | 0.366 | 0.433 | 0.39 | 0.273 | 0.503 | 0.651 | 0.496 | 0.425 | 0.42 | 0.395 | 0.431 | 0.402 | 0.769 | 0.645 | 0.922 | 0.837 | 0.7 | 0.392
NCI-H2085 | 0.452 | 0.434 | 0.551 | 0.453 | 0.442 | 0.562 | 0.623 | 0.542 | 0.527 | 0.438 | 0.621 | 0.513 | 0.581 | 0.87 | 0.816 | 0.865 | 0.76 | 0.68 | 0.561
SK-MES-1 | 0.279 | 0.362 | 0.424 | 0.331 | 0.282 | 0.6 | 0.678 | 0.655 | 0.656 | 0.578 | 0.663 | 0.539 | 0.58 | 1.41 | 1.12 | 1.11 | 1.19 | 1.12 | 0.649
NCI-H1734 | 0.508 | 0.418 | 0.475 | 0.429 | 0.426 | 0.418 | 0.516 | 0.455 | 0.722 | 0.694 | 0.661 | 0.678 | 0.692 | 0.814 | 0.79 | 0.861 | 0.709 | 0.831 | 0.37
NCI-H520 | 0.243 | 0.304 | 0.312 | 0.305 | 0.326 | 0.451 | 0.539 | 0.53 | 0.715 | 0.717 | 0.676 | 0.683 | 0.597 | 0.79 | 0.77 | 0.753 | 0.769 | 0.646 | 0.528
LK-2 | 0.48 | 0.568 | 0.575 | 0.353 | 0.305 | 0.433 | 0.588 | 0.402 | 0.653 | 0.685 | 0.663 | 0.653 | 0.489 | 0.345 | 0.296 | 0.386 | 0.188 | 0.237 | 0.393
LXF-289 | 0.814 | 0.788 | 0.823 | 0.737 | 0.655 | 0.484 | 0.488 | 0.486 | 0.693 | 0.693 | 0.683 | 0.653 | 0.667 | 0.782 | 0.826 | 0.65 | 0.712 | 0.712 | 0.409
EMC-BAC-2 | 0.535 | 0.596 | 0.587 | 0.497 | 0.495 | 0.405 | 0.508 | 0.335 | 0.906 | 0.891 | 0.916 | 0.891 | 0.85 | 0.831 | 0.628 | 0.454 | 0.398 | 0.437 | 0.418
201T | 0.683 | 0.731 | 0.735 | 0.69 | 0.641 | 0.459 | 0.478 | 0.579 | 0.707 | 0.72 | 0.725 | 0.681 | 0.714 | 0.942 | 0.939 | 1.04 | 0.91 | 0.867 | 0.406
